Assay results reported in patent publication US12522607B2, “Substituted pyrazolo[3,4-d]pyrimidines as wee-1 inhibitors” (WIGEN BIOMEDICINE TECHNOLOGY (SHANGHAI) CO., LTD., priority 2020, dated 2026).

Key:
HT29 cells = assay: Antiproliferative activity against HT29 cells (Cell Titer-Lumi, ATP content); format: cell-based; conditions: Homo sapiens, HT-29, 72 after compound addition, read-out: HT-29 cells Anti-proliferative activity (IC50 for the inhibition against HT-29 cell growth)
Protocol: Example 343. Assay for Antiproliferative Activity Against HT29 Cells
3000 HT29 cells were seed in a 384-well plate (Fisher 142762). After the cells adhered to the wall overnight, the compounds diluted in a gradient were added. 72 later, Cell Titer-Lumi (Beyotime C0068XL) was added to determine the content of ATP in the cells. The growth of the cells was evaluated, and the IC50 for the inhibition of the compounds against cell growth was calculated.

Wee-1 kinase = target: T1, Wee-1 kinase (Homo sapiens, UniProt P30291); assay: Inhibitory activity against Wee-1 kinase (Lanthra Screen Wee-1 kinase kit, Tracer 178); format: binding; conditions: Wee-1 kinase 5 nM, Tracer 178 50 nM, 1 h room temperature
T1 construct: purchased Invitrogen
T1 sequence (P30291 whole entry): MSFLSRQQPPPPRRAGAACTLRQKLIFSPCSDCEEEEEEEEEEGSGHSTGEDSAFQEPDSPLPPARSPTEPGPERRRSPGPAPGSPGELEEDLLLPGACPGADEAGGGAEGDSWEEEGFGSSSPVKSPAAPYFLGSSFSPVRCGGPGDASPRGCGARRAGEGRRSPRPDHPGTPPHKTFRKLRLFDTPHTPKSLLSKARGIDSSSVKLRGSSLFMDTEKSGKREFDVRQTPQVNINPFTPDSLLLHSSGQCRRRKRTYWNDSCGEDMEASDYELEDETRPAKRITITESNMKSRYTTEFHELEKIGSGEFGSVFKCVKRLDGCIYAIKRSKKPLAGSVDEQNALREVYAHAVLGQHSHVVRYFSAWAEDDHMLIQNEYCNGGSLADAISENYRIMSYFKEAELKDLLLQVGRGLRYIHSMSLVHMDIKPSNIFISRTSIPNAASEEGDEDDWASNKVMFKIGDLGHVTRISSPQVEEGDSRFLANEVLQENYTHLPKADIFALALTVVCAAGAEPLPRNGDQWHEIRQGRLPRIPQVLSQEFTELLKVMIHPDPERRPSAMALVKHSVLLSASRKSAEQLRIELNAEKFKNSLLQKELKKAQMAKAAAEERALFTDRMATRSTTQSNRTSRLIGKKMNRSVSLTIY
Protocol: Example 342. Assay for Inhibitory Activity of Compounds Against Wee-1 Kinase
The inhibitory activity of compounds against Wee-1 kinase was determined by using the Lanthra Screen Wee-1 kinase kit (Invitrogen). 5 μL of the compound diluted in a gradient with DMSO, 5 μL. of Wee-1 kinase (at a final concentration of 5 nM), 5 μL of an Eu-Anti-GST antibody (at a final concentration of 2 nM) mixture and 5 μL of kinase Tracer 178 (at a final concentration of 50 nM) were mixed well. The plate was read after incubation at room temperature for one hour. For comparison with the DMSO solvent control group, IC50 for the inhibition activity of the compounds against Wee-1 kinase was calculated.

SMILES | IC50 (HT29 cells) | IC50 (Wee-1 kinase)
C=CCn1c(=O)c2cnc(Nc3cnn(C4CCN(C(C)C)CC4)c3)nc2n1-c1ccc(=O)n(C(C)C)n1 [Compound 251] | 1000 to 3000 nM | 30 to 100 nM
Cc1cc(Nc2ncc3c(=O)n(C(C)C)n(-c4ccc(=O)n(C(C)(C)C)c4)c3n2)ccc1C1CCN(C)CC1 [Compound 336] | ≤ 1000 nM | ≤ 30 nM
C=CCn1c(=O)c2cnc(Nc3ccc(N4CCC(N5CCCCC5)CC4)cc3)nc2n1-c1ccc(=O)n(C(C)C)n1 [Compound 145] | ≤ 1000 nM | ≤ 30 nM
C=CCn1c(=O)c2cnc(Nc3cc(C)cc(C4CCN(C)CC4)c3)nc2n1-c1ccc(=O)n(C(C)C)n1 [Compound 207] | ≤ 1000 nM | ≤ 30 nM
C=CCn1c(=O)c2cnc(Nc3ccc(N4CCN(C)CC4)cc3)nc2n1-c1cc(F)c(=O)n(C(C)C)c1 [Compound 24] | ≤ 1000 nM | ≤ 30 nM
C=CCn1c(=O)c2cnc(Nc3ccc(N4CCC(C)(N)CC4)cc3)nc2n1-c1ccc(=O)n(C(C)C)n1 [Compound 107] | ≤ 1000 nM | ≤ 30 nM
C=CCn1c(=O)c2cnc(Nc3ccc(N4CCN(C)CC4)c(Cl)c3)nc2n1-c1ccc(=O)n(C(C)C)c1 [Compound 46] | ≤ 1000 nM | ≤ 30 nM
C=CCn1c(=O)c2cnc(Nc3ccc(N4CCN[C@@H](C)C4)cc3)nc2n1-c1ccc(=O)n(C(C)C)n1 [Compound 128] | ≤ 1000 nM | ≤ 30 nM
C=CCn1c(=O)c2cnc(Nc3ccc(N4CCN(C)CC4)c(CC(F)(F)F)c3)nc2n1-c1ccc(=O)n(C(C)C)n1 [Compound 54] | ≤ 1000 nM | ≤ 30 nM
Cc1cc(Nc2ncc3c(=O)n(C(C)C)n(-c4ccc(=O)n(C(C)C)n4)c3n2)ccc1N1CCN(C)CC1 [Compound 278] | ≤ 1000 nM | ≤ 30 nM
C=CCn1c(=O)c2cnc(Nc3ccc(N4CCN(C)CC4)cc3)nc2n1-c1cc(C#N)c(=O)n(C(C)C)c1 [Compound 28] | > 3000 nM | 30 to 100 nM
C=CCn1c(=O)c2cnc(Nc3ccc(N4CCN(C)CC4)c(OC)c3)nc2n1-c1cc(F)c(=O)n(C(C)C)c1 [Compound 311] | ≤ 1000 nM | ≤ 30 nM
CC(C)n1cc(-n2c3nc(Nc4ccc5c(c4)CN(C)CC54CC4)ncc3c(=O)n2C2CC2)cc(F)c1=O [Compound 326] | ≤ 1000 nM | ≤ 30 nM
C=CCn1c(=O)c2cnc(Nc3ccc(N4CC5(CN(C)C5)C4)c(C)c3)nc2n1-c1ccc(=O)n(C(C)C)n1 [Compound 158] | ≤ 1000 nM | ≤ 30 nM
C=CCn1c(=O)c2cnc(Nc3ccc(N4CC5(CCNCC5)C4)c(C)c3)nc2n1-c1ccc(=O)n(C(C)C)n1 [Compound 167] | 1000 to 3000 nM | 30 to 100 nM
C=CCn1c(=O)c2cnc(Nc3ccc(N4C[C@H](C)N(C)C[C@H]4C)cc3)nc2n1-c1ccc(=O)n(C(C)C)n1 [Compound 125] | ≤ 1000 nM | ≤ 30 nM
C=CCn1c(=O)c2cnc(Nc3ccc(N4CCN(C)CC4)nc3)nc2n1-c1ccc(=O)n(C(C)C)n1 [Compound 247] | ≤ 1000 nM | ≤ 30 nM
Cc1cc(Nc2ncc3c(=O)n(C(C)C)n(-c4ccc(=O)n(C(C)C)c4)c3n2)ccc1N1CCN(C)CC1 [Compound 304] | ≤ 1000 nM | ≤ 30 nM
C=CCn1c(=O)c2cnc(Nc3ccc(C4CCN(C)CC4)c(C)c3)nc2n1-c1ccc(=O)n(C(C)C)c1 [Compound 297] | ≤ 1000 nM | ≤ 30 nM
C=CCn1c(=O)c2cnc(Nc3ccc(N4CCC(C)(N(C)C)CC4)c(OC)c3)nc2n1-c1ccc(=O)n(C(C)C)n1 [Compound 115] | ≤ 1000 nM | ≤ 30 nM
C=CCn1c(=O)c2cnc(Nc3cccc(C4CCNCC4)c3)nc2n1-c1ccc(=O)n(C(C)C)n1 [Compound 204] | ≤ 1000 nM | ≤ 30 nM
C=CCn1c(=O)c2cnc(Nc3ccc(N4CCN(C)CC4)cc3)nc2n1-c1ccc(=O)n(CC2CC2)n1 [Compound 16] | 1000 to 3000 nM | 30 to 100 nM
C=CCn1c(=O)c2cnc(Nc3ccc4c(c3)CN(C(C)C)CC4(C)C)nc2n1-c1ccc(=O)n(C(C)C)n1 [Compound 239] | ≤ 1000 nM | ≤ 30 nM
Cc1cc(Nc2ncc3c(=O)n(C(C)C)n(-c4cc(F)c(=O)n(C(C)C)c4)c3n2)ccc1C1CCN(C)CC1 [Compound 321] | ≤ 1000 nM | ≤ 30 nM
C=CCn1c(=O)c2cnc(Nc3cc(N4CCN(C(C)C)CC4)c4cc[nH]c4c3)nc2n1-c1ccc(=O)n(C(C)C)n1 [Compound 253] | ≤ 1000 nM | ≤ 30 nM
C=CCn1c(=O)c2cnc(Nc3ccc(N4CC5CCC(C4)N5C)cc3)nc2n1-c1ccc(=O)n(C(C)C)n1 [Compound 136] | 1000 to 3000 nM | 30 to 100 nM

SMILES | IC50 (HT29 cells) | IC50 (Wee-1 kinase)
C=CCn1c(=O)c2cnc(Nc3cc(N4CCN(C(C)C)CC4)c4ccn(C5CC5)c4c3)nc2n1-c1ccc(=O)n(C(C)C)n1 [Compound 259] | ≤ 1000 nM | ≤ 30 nM
C=CCn1c(=O)c2cnc(Nc3ccc(N4CCN[C@H](C)C4)cc3)nc2n1-c1ccc(=O)n(C(C)C)n1 [Compound 131] | ≤ 1000 nM | ≤ 30 nM
CCn1c(=O)c2cnc(Nc3ccc(N4CCN(C)CC4)c(C)c3)nc2n1-c1ccc(=O)n(C(C)C)c1 [Compound 300] | ≤ 1000 nM | ≤ 30 nM
C=CCn1c(=O)c2cnc(Nc3ccc(N4CCC(NC)CC4)c(OC)c3)nc2n1-c1ccc(=O)n(C(C)C)n1 [Compound 106] | ≤ 1000 nM | ≤ 30 nM
C=CCn1c(=O)c2cnc(Nc3ccc4c(c3)CN(C)C4(C)C)nc2n1-c1ccc(=O)n(C(C)C)n1 [Compound 224] | ≤ 1000 nM | ≤ 30 nM
C=CCn1c(=O)c2cnc(Nc3ccc(N4CCN(C)CC4)cc3)nc2n1-c1ccc(=O)n(C(C)(C)C)n1 [Compound 9] | ≤ 1000 nM | ≤ 30 nM
C=CCn1c(=O)c2cnc(Nc3ccc(N4CCC(N5CCOCC5)CC4)c(OC)c3)nc2n1-c1ccc(=O)n(C(C)C)n1 [Compound 150] | ≤ 1000 nM | ≤ 30 nM
C=CCn1c(=O)c2cnc(Nc3ccc(C4(C)CCNCC4)cc3)nc2n1-c1ccc(=O)n(C(C)C)n1 [Compound 200] | ≤ 1000 nM | ≤ 30 nM
Cc1cc(Nc2ncc3c(=O)n(C4CC4)n(-c4ccc(=O)n(C(C)(C)C)c4)c3n2)ccc1C1CCN(C)CC1 [Compound 340] | ≤ 1000 nM | ≤ 30 nM
C=CCn1c(=O)c2cnc(Nc3ccc(N4CCC(N)CC4)c(C)c3)nc2n1-c1ccc(=O)n(C(C)C)n1 [Compound 102] | ≤ 1000 nM | ≤ 30 nM
C=CCn1c(=O)c2cnc(Nc3cc(F)c(N4CCN(C)CC4)c(OC)c3)nc2n1-c1ccc(=O)n(C(C)C)n1 [Compound 64] | ≤ 1000 nM | ≤ 30 nM
C=CCn1c(=O)c2cnc(Nc3ccc(OCCN(C)C)c(C)c3)nc2n1-c1ccc(=O)n(C(C)C)n1 [Compound 217] | ≤ 1000 nM | ≤ 30 nM
C=CCn1c(=O)c2cnc(Nc3ccc4c(C5CCN(C(C)C)CC5)cn(C)c4c3)nc2n1-c1ccc(=O)n(C(C)C)n1 [Compound 268] | ≤ 1000 nM | ≤ 30 nM
C=CCn1c(=O)c2cnc(Nc3cc(F)cc(N4CCN(C)CC4)c3)nc2n1-c1ccc(=O)n(C(C)C)n1 [Compound 72] | ≤ 1000 nM | ≤ 30 nM
CCn1c(=O)c2cnc(Nc3ccc4c(c3)CN(C)CC43CC3)nc2n1-c1ccc(=O)n(C(C)(C)C)n1 [Compound 287] | ≤ 1000 nM | ≤ 30 nM
C=CCn1c(=O)c2cnc(Nc3ccc(N4CC5(CNC5)C4)c(OC)c3)nc2n1-c1ccc(=O)n(C(C)C)n1 [Compound 156] | 1000 to 3000 nM | ≤ 30 nM
C=CCn1c(=O)c2cnc(Nc3ccc4c(N5CCN(C)CC5)cn(C)c4c3)nc2n1-c1ccc(=O)n(C(C)C)n1 [Compound 264] | ≤ 1000 nM | ≤ 30 nM
C=CCn1c(=O)c2cnc(Nc3ccc4c(c3)C(C)(C)CN(C)C4)nc2n1-c1ccc(=O)n(C(C)C)n1 [Compound 244] | ≤ 1000 nM | ≤ 30 nM
C=CCn1c(=O)c2cnc(Nc3ccc(N4CC[C@@H](N(C)C)C4)cc3)nc2n1-c1ccc(=O)n(C(C)C)n1 [Compound 95] | ≤ 1000 nM | ≤ 30 nM
C=CCn1c(=O)c2cnc(Nc3ccc(C4CCNCC4)cc3)nc2n1-c1ccc(=O)n(C(C)C)n1 [Compound 190] | ≤ 1000 nM | ≤ 30 nM
CCn1c(=O)c2cnc(Nc3ccc4c(c3)CN(C)CC43CC3)nc2n1-c1cc(F)c(=O)n(C(C)C)c1 [Compound 318] | ≤ 1000 nM | ≤ 30 nM
C=CCn1c(=O)c2cnc(Nc3ccc(N4CCN(C)CC4)cc3)nc2n1-c1ccc(=O)n(CC)n1 [Compound 2] | > 3000 nM | > 100 nM
C=CCn1c(=O)c2cnc(Nc3ccc(N4CCC5(CCN(C)CC5)CC4)c(C)c3)nc2n1-c1ccc(=O)n(C(C)C)n1 [Compound 185] | ≤ 1000 nM | ≤ 30 nM
C=CCn1c(=O)c2cnc(Nc3ccc(N4CCN(CC)CC4)cc3)nc2n1-c1ccc(=O)n(C(C)C)n1 [Compound 32] | ≤ 1000 nM | ≤ 30 nM
C=CCn1c(=O)c2cnc(Nc3ccc(N4CC(N(C)C)C4)c(OC)c3)nc2n1-c1ccc(=O)n(C(C)C)n1 [Compound 79] | ≤ 1000 nM | ≤ 30 nM
C=CCn1c(=O)c2cnc(Nc3cc(N4CCC(N(C)C)CC4)c4cc[nH]c4c3)nc2n1-c1ccc(=O)n(C(C)C)n1 [Compound 254] | ≤ 1000 nM | ≤ 30 nM
